Experiment [1] concerns Venturia inaequalis; Bayer Code VENTIN. The experiment in a line: Apple scab. The class given is in vivo. The conditions noted are these: 24 h, % disease control rating, one day protectant; for pest or weed control at 25 ppm: read-out: VENTIN 1 DP 25 ppm; for pest or weed control at 75 ppm: read-out: VENTIN 1 DP 75 ppm.
The test system of experiment [2] is Mycosphaerella graminicola; Anamorph: Septoria tritici; Bayer Code SEPTTR. The experiment in a line: Leaf blotch of wheat, foliar fungicide treatment, one day protectant (1DP) or three day curative (3DC). The class given is in vivo, Septoria tritici on wheat plants (variety Yuma). The conditions noted are these: Zymoseptoria tritici; for pest or weed control at 200 ppm / pest or weed control at 50 ppm: % disease control rating.

The test system of experiment [3] is Cercospora beticola; Bayer Code CERCBE. The experiment in a line: Leaf spot of sugar beets. It is filed as in vivo, Cercospora beticola on sugar beets (variety HH-88). The conditions noted are these: 24 h, % disease control rating, one day protectant; for pest or weed control at 25 ppm: read-out: CERCBE 1 DP 25 ppm; for pest or weed control at 75 ppm: read-out: CERCBE 1 DP 75 ppm.

[4] abbreviates: 24 h, one day protectant (1DP), percent disease control rating, read-out: SETTTR 1DP 25 ppm.
Setting [5] is: 24 h, one day protectant (1DP), percent disease control rating, read-out: SEPTTR 1DP 100 ppm.
The mark [6] stands for this setting: 72 h, three day curative (3DC), percent disease control rating, read-out: SEPTTR 3DC 25 ppm.
The mark [7] stands for this setting: 72 h, three day curative (3DC), percent disease control rating, read-out: SEPTTR 3DC 100 ppm.
Setting [8] is: 24 h, one day protectant, rating of percent disease control, read-out: SETTTR 1DP 25 ppm.
Setting [9] is: 24 h, one day protectant, rating of percent disease control, read-out: SEPTTR 1DP 100 ppm.
Where [10] appears, read: 72 h, three day curative, rating of percent disease control, read-out: SEPTTR 3DC 25 ppm.
Where [11] appears, read: 72 h, three day curative, rating of percent disease control, read-out: SEPTTR 3DC 100 ppm.
The mark [12] stands for this setting: 24 h, one day protectant (1DP), rating of percent disease control, read-out: SETTTR 1DP 25 ppm.
The mark [13] stands for this setting: 24 h, one day protectant (1DP), rating of percent disease control, read-out: SEPTTR 1DP 100 ppm.
Setting [14] is: 72 h, three day curative (3DC), rating of percent disease control, read-out: SEPTTR 3DC 25 ppm.
Setting [15] is: 72 h, three day curative (3DC), rating of percent disease control, read-out: SEPTTR 3DC 100 ppm.

Read-outs that look alike come from different tables or passages of the source.

Consider `CN1CCN(CNc2nc(OCc3ccc(F)cc3)ncc2F)CC1` [Compound 7, [5-Fluoro-2-(4-fluorobenzyloxy)pyrimidin-4-yl]-(4-methylpiperazin-1-ylmethyl)amine], for which the pest or weed control at 25 ppm is 76 to 100% in experiment [1], 76 to 100% in experiment [2] (setting [4]), 76 to 100% in experiment [2] (setting [6]) and 51 to 75% in experiment [3]. Moreover, the pest or weed control at 75 ppm in experiment [1] is 76 to 100%; in experiment [3], 51 to 75%. Besides, the pest or weed control at 100 ppm in experiment [2] (setting [5]) and in experiment [2] (setting [7]) was 76 to 100% each time.
On to `Nc1nc(OCCCc2ccccn2)ncc1F` [Compound 635], for which the pest or weed control at 25 ppm in experiment [1] was in the range of 26 to 50%; in experiment [2] (setting [8]) it was 26 to 50%; in experiment [2] (setting [10]), 0 to 25%; in experiment [3] it was 26 to 50%. The pest or weed control at 75 ppm in experiment [1] lay within 76 to 100%; in experiment [3], 26 to 50%. Further, the pest or weed control at 100 ppm in experiment [2] (setting [9]) and in experiment [2] (setting [11]) was 76 to 100% each time.
With `CN(Cc1ccccc1F)c1nc(OCc2ccc(F)cc2)ncc1F` [Compound 164], the pest or weed control at 25 ppm in experiment [1] lay within 26 to 50%; in experiment [2] (setting [4]), 26 to 50%; in experiment [2] (setting [6]), 0 to 25%; in experiment [3], 0 to 25%. Also, the results for the pest or weed control at 75 ppm in experiment [1] and in experiment [3] were 51 to 75% and 0 to 25%, respectively. Moreover, the pest or weed control at 100 ppm in experiment [2] (setting [5]) and in experiment [2] (setting [7]) was 51 to 75% throughout.
With `Fc1cnc(OCc2ccc(OC(F)(F)F)cc2)nc1NCc1cccs1` [Compound 860], in experiment [1], the pest or weed control at 25 ppm was 26 to 50% and the pest or weed control at 75 ppm fell in the range of 51 to 75%. In experiment [2] (24 h, one day protectant), this compound had a pest or weed control at 200 ppm of 76 to 100%. Moreover, in experiment [3], the pest or weed control at 25 ppm fell in the range of 0 to 25% and the pest or weed control at 75 ppm was in the range of 26 to 50%.
As to `Nc1nc(OCc2nc(Cl)ccc2Cl)ncc1F` [Compound 141], the pest or weed control at 25 ppm in experiment [1] fell in the range of 0 to 25%; in experiment [2] (setting [4]), 0 to 25%; in experiment [2] (setting [6]) it was 51 to 75%; in experiment [3], 0 to 25%. The values for the pest or weed control at 75 ppm in experiment [1] and in experiment [3] were 26 to 50% and 0 to 25%, respectively. Moreover, the results for the pest or weed control at 100 ppm in experiment [2] (setting [5]) and in experiment [2] (setting [7]) were 76 to 100% and 26 to 50%, respectively.
On to `CN1CCCC1CCOc1ncc(F)c(N)n1` (stereo not shown) [Compound 384], for which the pest or weed control at 25 ppm is 51 to 75% in experiment [1], 51 to 75% in experiment [2] (setting [12]), 26 to 50% in experiment [2] (setting [14]) and 0 to 25% in experiment [3]. Moreover, the pest or weed control at 75 ppm in experiment [1] and in experiment [3] was 0 to 25% in each case. Besides, the pest or weed control at 100 ppm in experiment [2] (setting [13]) and in experiment [2] (setting [15]) was 76 to 100% throughout.
For the compound `Nc1nc(OCCn2cncn2)ncc1F` [Compound 933], in experiment [1], the pest or weed control at 25 ppm fell in the range of 0 to 25% and the pest or weed control at 75 ppm was 26 to 50%. In addition, in experiment [2] (24 h, one day protectant), the pest or weed control at 50 ppm is 26 to 50% and the pest or weed control at 200 ppm lay within 51 to 75%. Moreover, in experiment [3], the pest or weed control at 25 ppm was in the range of 26 to 50% and the pest or weed control at 75 ppm lay within 26 to 50%.
In the case of `CC(Oc1ncc(F)c(NCOCc2ccccc2)n1)c1ccc(F)cc1` (stereo not shown) [Compound 121], the pest or weed control at 25 ppm was 76 to 100% in experiment [1], 51 to 75% in experiment [2] (setting [4]), 51 to 75% in experiment [2] (setting [6]) and 0 to 25% in experiment [3]. Moreover, the results for the pest or weed control at 75 ppm in experiment [1] and in experiment [3] were 26 to 50% and 0 to 25%, respectively. Further, the pest or weed control at 100 ppm in experiment [2] (setting [5]) and in experiment [2] (setting [7]) was 76 to 100% in each case.
As to `CCCCCCOc1ncc(F)c(/N=C/N(C)C)n1` [Compound 68], the pest or weed control at 25 ppm in experiment [1] was 51 to 75%; in experiment [2] (setting [4]) it was 0 to 25%; in experiment [2] (setting [6]) it was 0 to 25%; in experiment [3] it was 51 to 75%. Also, the pest or weed control at 75 ppm in experiment [1] was in the range of 76 to 100%; in experiment [3] it was 51 to 75%. The pest or weed control at 100 ppm in experiment [2] (setting [5]) and in experiment [2] (setting [7]) was 51 to 75% in each case.
`Cc1cnc(CNc2nc(OCc3ccco3)ncc2F)cn1` [Compound 849]: in experiment [1], the pest or weed control at 25 ppm was 76 to 100% and the pest or weed control at 75 ppm lay in the range of 51 to 75%. Besides, in experiment [2] (24 h, one day protectant), the pest or weed control at 50 ppm was 76 to 100% and the pest or weed control at 200 ppm lay in the range of 76 to 100%. In addition, in experiment [3], the pest or weed control at 25 ppm lay within 26 to 50% and the pest or weed control at 75 ppm fell in the range of 26 to 50%.
Regarding `CCCCCCOc1ncc(F)c(N)n1` [Compound 137], the pest or weed control at 25 ppm in experiment [1] lay in the range of 0 to 25%; in experiment [2] (setting [4]), 26 to 50%; in experiment [2] (setting [6]), 26 to 50%; in experiment [3] it was 0 to 25%. Moreover, the pest or weed control at 75 ppm in experiment [1] is 76 to 100%; in experiment [3] it was 0 to 25%. Further, the pest or weed control at 100 ppm in experiment [2] (setting [5]) and in experiment [2] (setting [7]) was 76 to 100% each time.
Consider `O=C(OCNc1nc(OCc2ccc(F)cc2)ncc1F)C1CC1` [Compound 410], for which the pest or weed control at 25 ppm in experiment [1] lay in the range of 26 to 50%; in experiment [2] (setting [12]) it was 51 to 75%; in experiment [2] (setting [14]), 51 to 75%; in experiment [3] it was 26 to 50%. Further, the pest or weed control at 75 ppm fell in the range of 51 to 75% in experiment [1] and 26 to 50% in experiment [3]. Moreover, the pest or weed control at 100 ppm in experiment [2] (setting [13]) and in experiment [2] (setting [15]) was 76 to 100% in each case.
For `CC(C)(c1ccccc1)c1cccc(COc2ncc(F)c(N)n2)c1` [Compound 687], the pest or weed control at 25 ppm in experiment [1] fell in the range of 26 to 50%; in experiment [2] (setting [8]) it was 26 to 50%; in experiment [2] (setting [10]), 0 to 25%; in experiment [3] it was 0 to 25%. In addition, the pest or weed control at 75 ppm fell in the range of 51 to 75% in experiment [1] and 0 to 25% in experiment [3]. Also, the pest or weed control at 100 ppm in experiment [2] (setting [9]) was in the range of 76 to 100%; in experiment [2] (setting [11]), 0 to 25%.
`Nc1nc(OC2CCCc3cccnc32)ncc1F` (stereo not shown) [Compound 560]: the pest or weed control at 25 ppm in experiment [1], in experiment [2] (setting [8]), in experiment [2] (setting [10]) and in experiment [3] was 0 to 25% each time. Moreover, the pest or weed control at 75 ppm in experiment [1] lay in the range of 76 to 100%; in experiment [3] it was 26 to 50%. In addition, the pest or weed control at 100 ppm fell in the range of 26 to 50% in experiment [2] (setting [9]) and 76 to 100% in experiment [2] (setting [11]).
For `CC(C)(C)OC(=O)NOc1ncc(F)c(N)n1` [Compound 481], the pest or weed control at 25 ppm in experiment [1] was 76 to 100%; in experiment [2] (setting [12]) it was 76 to 100%; in experiment [2] (setting [14]) it was 76 to 100%; in experiment [3], 26 to 50%. The pest or weed control at 75 ppm in experiment [1] and in experiment [3] was 76 to 100% in each case. The pest or weed control at 100 ppm in experiment [2] (setting [13]) and in experiment [2] (setting [15]) was 76 to 100% in each case.
As for `O=C1OC(Nc2nc(OCc3ccc(F)cc3)ncc2F)c2ccccc21` (stereo not shown) [Compound 226], the pest or weed control at 25 ppm in experiment [1] was 26 to 50%; in experiment [2] (setting [12]), 76 to 100%; in experiment [2] (setting [14]), 76 to 100%; in experiment [3] it was 0 to 25%. Moreover, the figures for the pest or weed control at 75 ppm in experiment [1] and in experiment [3] were 76 to 100% and 26 to 50%, respectively. In addition, the pest or weed control at 100 ppm in experiment [2] (setting [13]) and in experiment [2] (setting [15]) was 76 to 100% in each case.
Regarding `COc1ccc(COc2ncc(F)c(/N=C3\CCCCN3C)n2)cc1F` [Compound 732], the pest or weed control at 25 ppm in experiment [1] lay within 26 to 50%; in experiment [2] (setting [8]) it was 76 to 100%; in experiment [2] (setting [10]) it was 51 to 75%; in experiment [3], 26 to 50%. Besides, the pest or weed control at 75 ppm in experiment [1] and in experiment [3] was 76 to 100% throughout. The pest or weed control at 100 ppm in experiment [2] (setting [9]) and in experiment [2] (setting [11]) was 76 to 100% in each case.
Regarding `Cc1nc(COc2ncc(F)c(N)n2)cs1` [Compound 436], the pest or weed control at 25 ppm in experiment [1] lay within 76 to 100%; in experiment [2] (setting [12]) it was 76 to 100%; in experiment [2] (setting [14]) it was 76 to 100%; in experiment [3], 51 to 75%. Moreover, the pest or weed control at 75 ppm in experiment [1] was in the range of 76 to 100%; in experiment [3], 26 to 50%. For the same compound, the pest or weed control at 100 ppm in experiment [2] (setting [13]) and in experiment [2] (setting [15]) was 76 to 100% in each case.
`Nc1nc(OCc2ccc(Cl)c([N+](=O)[O-])c2)ncc1F` [Compound 707]: the pest or weed control at 25 ppm in experiment [1] fell in the range of 51 to 75%; in experiment [2] (setting [8]), 76 to 100%; in experiment [2] (setting [10]) it was 76 to 100%; in experiment [3], 51 to 75%. Also, the pest or weed control at 75 ppm in experiment [1] was 51 to 75%; in experiment [3], 26 to 50%. In addition, the pest or weed control at 100 ppm in experiment [2] (setting [9]) and in experiment [2] (setting [11]) was 76 to 100% throughout.
